Measured values published in US20050019438A1, “Hop extracts and use thereof in the production of a medicament having estrogenic properties” (priority 2001, published 2005).

Tested on: Ishikawa cell line (Var. I) of human endometrial adenocarcinoma
Test: Ishikawa cell alkaline phosphatase assay of estrogenic activity
Type: cell-based
From the text: The in vitro assay used was developed by Littlefield in 1990 (Endocrinology 1990, 127, p. 2757-2762).
The variant of the cell line used is sensitive to estrogens, to which it responds not through a proliferative activity, but through an activity which stimulates an enzyme, alkaline phosphatase. This assay provides, in a sensitive and specific manner, information on the estrogenic activity since, among steroids, only the estrogens respond to this assay and succeed in stimulating the enzyme activity. The estrogenic activity can also be triggered by non-steroidal substances having a “estrogen-like” effect, such as phytoestrogens. The estrogenic responses obtained below are blocked by the reference anti-estrogen brought into contact, which indicates an estrogen receptor-mediated activity.
The model is an Ishikawa cell line (Var. I) of human endometrial adenocarcinoma (established by Nishida: Acta Obstet Gynaec Jap 1985, 37: 1103-1111).
Specifically, alkaline phosphatase hydrolyzes p-nitrophenol phosphate to p-nitrophenol, which gives a colored reaction.
The assay consists in measuring the absorbance at 405 nm after incubation for 72 h.
Two controls were used: • positive control=17β-estradiol, • negative control=antiestrogen ICI182, 780 from Zeneca. […]

SMILES	estrogenic activity / response (in words) (alkaline phosphatase activation in Ishikawa cells, absorbance at 405 nm after 72 h)	blocking of the estrogenic responses by the anti-estrogen (reference anti-estrogen brought into contact, indicates estrogen receptor-mediated activity)
C[C@]12CC[C@@H]3c4ccc(O)cc4CC[C@H]3[C@@H]1CC[C@@H]2O [17β-Estradiol, 17β-estradiol]	expected dose-effect relationship	
C[C@]12CC[C@@H]3c4ccc(O)cc4C[C@@H](CCCCCCCCC[S+]([O-])CCCC(F)(F)C(F)(F)F)[C@H]3[C@@H]1CC[C@@H]2O (stereo partly drawn) [reference anti-estrogen]		blocked
